Laboratory results as given in PMC8163091, “Production of novel pladienolide analogues through native expression of a pathway-specific activator” (Chemical Science, 2020).
≈ marks a conversion by molar mass, not a printed value.

Experiments:
Assay type in all cases: cell-based
[1] = system: NS-1 mouse myeloma ATCC TIB-18; experiment: Antitumour resazurin assay, NS-1 mouse myeloma cells; conditions: 96 h; for MIC, NS-1: NS-1 mouse myeloma ATCC TIB-18; for IC50: Mus musculus, read-out: IC50 ± 95% confidence interval, NS-1
Procedure: (§1) To ascertain the bioactivity of all compounds the inhibitory concentrations of 1–6 were measured against bacteria (Bacillus subtilis ATCC 6633 and Staphylococcus aureus ATCC 25923), yeasts (Candida albicans ATCC 10231 and Saccharomyces cerevisiae ATCC 9763), a protozoan (Tritrichomonas foetus), and mammalian cell lines (NS-1 mouse myeloma ATCC TIB-18 and NFF human neonatal foreskin fibroblast cells ATCC PCS-201). […] Given this selectivity, the IC50 values for each compound 1–5versus NS-1, NFF and DU145 human prostate cancer cell ATCC HTB-81 were ascertained by a resazurin-based assay (Table 2). […]
(§2) 1.7. Assays for Biological Activity
(§3) Purified metabolites (1 – 6) were dissolved in DMSO to provide stock solutions (1,000 µg/mL or 40 µg/mL). Bioassays were carried out in 96-well microtitre plates containing two-fold serial dilutions to yield ranges of 10 to 0.005 µg mL-1 or 0.4 to 0.0002 µg mL-1, in 1% DMSO. […]
(§4) To assay antitumour activity, NS -1 ATCC TIB-18 mouse myeloma , DU145 prostate cancer cells (ATCC HTB-81), and NFF (ATCC PCS -201) human neonatal foreskin fibroblast cells were each inoculated in 96 -well microtitre plates (190 µL) at 50,000 cells mL-1 in DMEM (Dulbecco's Modified Eagle Medium + 10% v/v fetal bovine serum (FBS) + 1% v/v penicillin/streptomycin (10,000U mL-1/ 10,000 µg mL-1, Life Technologies Cat. No. 15140122), together with resazurin (250 µg/mL; 10 µL) and incubated at 37 °C (5% CO2). The plates were incubated for 96 h. Absorbance was measured using a Spectromax plate reader (Molecular Devices) at 605 nm for % inhibition, and IC50 values determined.

[2] = system: NFF human neonatal foreskin fibroblast cells ATCC PCS-201; experiment: Resazurin assay, NFF human neonatal foreskin fibroblast cells; conditions: for MIC, NFF: NFF human neonatal foreskin fibroblast ATCC PCS-201; for MIC, NFF / IC50: 96 h; for IC50: Homo sapiens, Fibroblast, read-out: IC50 ± 95% confidence interval, NFF
Procedure: as §1, §2, §3, §4

[3] = system: Bacillus subtilis ATCC 6633; experiment: Antibacterial assay, B. subtilis; conditions: ATCC6633, 28 °C, 48 h, read visually
Procedure: as §1, §2
as §3, with “DMSO. Wells containing no test compound as a reference for no inhibition, and uninoculated wells were used as a reference for complete” for “DMSO.”
(§5) Antibacterial assays were carried out using Bacillus subtilis ATCC 6633 and Staphylococcus aureus ATCC 25923 as indicative species for Gram-positive activity. A bacterial suspension (50 mL in 250 mL flask) was prepared in nutrient broth media (5.0 g L-1 bacteriological peptone (Bacto), 5.0 g L-1 NaCl (Chem-supply), 2.0 g L-1 yeast extract (Bacto), 1.0 g L-1 beef extract (Bacto)) by cultivation for 24 h at 250 rpm, 28 °C. The suspension was diluted to an absorbance of 0.01 absorbance units per mL [OD400 nm] and aliquots (10 µL) were added to the wells of a 96 -well microtitre plate containing the test compounds dispersed in nutrient broth with resazurin (12.5 µg mL-1). The plates were incubated at 28 °C for 48 h, during which time the positive control wells change colour from a blue to light pink colour. MICs were determined visually. […]

[4] = system: Staphylococcus aureus ATCC 25923; experiment: Antibacterial assay, S. aureus; conditions: ATCC25923, 28 °C, 48 h, read visually
Procedure: as §1, §2
as §3, with “DMSO. Wells containing no test compound as a reference for no inhibition, and uninoculated wells were used as a reference for complete” for “DMSO.”
as §5

[5] = system: Candida albicans ATCC 10231; experiment: Antifungal assay, C. albicans; conditions: ATCC10231, 24 °C, 48 h, read visually
Procedure: as §1, §2, §3
(§6) Antifungal assays were carried out using Candida albicans ATCC 10231 and Saccharomyces cerevisiae ATCC 9763 as indicative species for antifungal activity. A yeast suspension (50 mL in 250 mL flask) was prepared in malt extract broth (1.0 g L-1 bacteriological peptone (Bacto), 20.0 g L-1 malt extract […]
(§7) (Bacto), 20 g L-1 glucose (Country Brewers)) by cultivation for 24 h at 250 rpm, 24 °C. The suspension was diluted to an absorbance of 0.005 and 0.03 absorbance units [ OD400] per mL for C. albicans and S. cerevisiae, respectively. Aliquots (20 µL and 30 µL) of C. albicans and S. cerevisiae, respectively were applied to the wells of a 96-well microtitre plate, which contained the test compounds dispersed in malt extract broth containing bromocresol green (50 µg mL-1). The plates were incubated at 24 °C for 48 h during which time the positive control wells change colour from a blue to yellow colour. MIC end points were determined visually. […]
(§8) To assay antitumour activity, NS -1 ATCC TIB-18 mouse myeloma , DU145 prostate cancer cells (ATCC HTB-81), and NFF (ATCC PCS -201) human neonatal foreskin fibroblast cells were each

[6] = system: Saccharomyces cerevisiae ATCC 9763; experiment: Antifungal assay, S. cerevisiae; conditions: ATCC9763, 24 °C, 48 h, read visually
Procedure: as §1, §2, §3, §6, §7, §8

[7] = system: DU145 human prostate cancer cell ATCC HTB-81; experiment: Antitumour resazurin assay, DU145 prostate cancer cells; conditions: DU-145, 96 h, read-out: IC50 ± 95% confidence interval, DU145
Procedure: as §1, §2, §3, §4

mammalian cell lines = experiment: Inhibitory activity against mammalian cell lines (summary across NS-1, DU145, NFF)
Procedure: To ascertain the bioactivity of all compounds the inhibitory concentrations of 1–6 were measured against bacteria (Bacillus subtilis ATCC 6633 and Staphylococcus aureus ATCC 25923), yeasts (Candida albicans ATCC 10231 and Saccharomyces cerevisiae ATCC 9763), a protozoan (Tritrichomonas foetus), and mammalian cell lines (NS-1 mouse myeloma ATCC TIB-18 and NFF human neonatal foreskin fibroblast cells ATCC PCS-201). […] Given this selectivity, the IC50 values for each compound 1–5versus NS-1, NFF and DU145 human prostate cancer cell ATCC HTB-81 were ascertained by a resazurin-based assay (Table 2).
as §7
Cat. No. 15140122), 10% v/v new born calf serum (NBCS), Life Technologies). […] T. foetus proliferation was measured at 72 h . […]

| Structure (SMILES) | MIC, NS-1 [1] [µg/mL] | MIC, NFF [2] [µg/mL] | MIC [3] [µg/mL] | MIC [4] [µg/mL] | MIC [5] [µg/mL] | MIC [6] [µg/mL] | IC50 [1] [nM] | IC50 [2] [nM] | IC50 [7] [nM] | Activity, times lower than 1 against NFF ([2]; NFF) [times] | IC50 values, times greater than those of 1 (mammalian cell lines; across cell lines) | Fold less effective than 1 (mammalian cell lines; depending on the cell line) [fold] |
| --- | --- | --- | --- | --- | --- | --- | --- | --- | --- | --- | --- | --- |
| CC[C@@H]1O[C@@H](C[C@H](C)/C=C/C=C(\C)[C@H]2OC(=O)C[C@H](O)CC[C@@](C)(O)[C@@H](OC(C)=O)/C=C/[C@@H]2C)[C@H](O)[C@@H]1C [Compound 6, isopladienolide B] | 0.08 (≈ 0.149 µM) | 1.25 (≈ 2.33 µM) | > 10 | > 10 | > 20 | > 20 |  |  |  |  |  |  |
| CC[C@H](O)[C@@H](C)[C@H]1O[C@@H]1C[C@H](C)/C=C/C=C(\C)[C@H]1OC(=O)C[C@H](O)CC[C@@](C)(O)[C@@H](OC(C)=O)/C=C/[C@@H]1C [Compound 1, pladienolide B] | 0.001 (≈ 0.00186 µM) | 0.013 (≈ 0.0242 µM) | > 10 | > 10 | > 20 | > 20 | 5.6 ± 0.6 | 13 ± 4.1 | 7.5 ± 3.5 |  |  |  |
| CC[C@H](O)[C@@H](C)/C=C/C[C@H](C)/C=C/C=C(\C)[C@H]1OC(=O)C[C@H](O)CC[C@H](C)[C@@H](O)/C=C/[C@@H]1C [Compound 5, Δ18,19-6-deoxy-7-desacetylpladienolide B] | 0.63 (≈ 1.36 µM) | 10 (≈ 21.6 µM) | > 10 | > 10 | > 20 | > 20 |  | 8100 ± 1800 |  | > 600 |  |  |
| CC[C@H](O)[C@@H](C)/C=C/C[C@H](C)/C=C/C=C(\C)[C@H]1OC(=O)C[C@H](O)CC[C@@](C)(O)[C@@H](OC(C)=O)/C=C/[C@@H]1C [Compound 3, Δ18,19-pladienolide B] | 0.05 (≈ 0.096 µM) | 0.6 (≈ 1.15 µM) | > 10 | > 10 | > 20 | > 20 | > 770 | 319 ± 61 | 96 ± 27 |  | up to twenty-five |  |
| CC[C@H](O)[C@@H](C)[C@H]1O[C@@H]1C[C@H](C)/C=C/C=C(\C)[C@H]1OC(=O)C[C@H](O)CC[C@H](C)[C@@H](OC(C)=O)/C=C/[C@@H]1C [Compound 2, 6-deoxypladienolide B] | 0.001 (≈ 0.00192 µM) | 0.04 (≈ 0.0768 µM) | > 10 | > 10 | > 20 | > 20 | 40.3 ± 3.7 | 27 ± 14 | 9.6 ± 5.8 |  |  | ≤ 8 |
| CC[C@H](O)[C@@H](C)/C=C/C[C@H](C)/C=C/C=C(\C)[C@H]1OC(=O)C[C@H](O)CC[C@H](C)[C@@H](OC(C)=O)/C=C/[C@@H]1C [Compound 4, Δ18,19-6-deoxypladienolide B] | 0.1 (≈ 0.198 µM) | 0.4 (≈ 0.793 µM) | > 10 | > 10 | > 20 | > 20 | > 790 | > 790 | 264 ± 79 |  |  |  |
